From patent US11331368B2, “Angiotensin receptor agonists and uses thereof” (Monash University, priority 2017, dated 2022) come the findings set out here.

“Also recorded” adds a separate entry of the source. Square brackets hold non-standard residues; d marks the D form. Ends that are not written are not given here. βVal = β-valine (β-amino acid form of Val); βIle = beta-form isoleucine

What is called IC50 is the concentration needed to halve the response being measured.

Assay [1] in a line: Systolic blood pressure by tail-cuff in high salt-fed mice. Format: in vivo, mouse. Conditions: data not shown. The method, then: The incision area was sutured with 6/0 DY silk ([…] Ltd) and antibiotic powder applied ([…], Pfizer) followed by intramuscular injection of the analgesic Cartrophen (0.1 ml of a 1.5 mg/ml stock solution; Biopharm Australia). Systolic blood pressure (SBP) was measured using non-invasive tail-cuff plethysmography apparatus (MC4000 Blood Pressure Analysis System, Hatteras Instrument Inc) before drug treatment (week 0), and then fortnightly. At the end of the 8 week treatment period mice were weighed before being killed by overdose of isoflurane inhalation and cervical dislocation. […] To this end, modified Ang peptides of interest were dissolved in saline and delivered subcutaneously via an implanted osmotic minipump and systolic blood pressure (SBP) was measured fortnightly.

Assay [2] has as its system male FVB/N mice on high salt diet, kidney. The experiment in a line: High salt (5%) diet intervention model, kidney. Format: in vivo, mouse. Conditions: 75 pmol/kg/min s.c., weeks 5-8.
For assay [3], the system named is male FVB/N mice on high salt diet, liver. Description: High salt (5%) diet intervention model, liver. Format: in vivo, mouse. Particulars: weeks 5-8, peptides 75 pmol/kg/min s.c., Cand 2 mg/kg/day, captopril 3 mg/kg/day. On the procedure: (§1) C) In the intervention (or reversal) model, male FVB/N mice were treated with selective AT2Rs agonists after the establishment of cardiovascular disease using a high salt diet, in order to reverse cardiovascular pathologies. In some experiments, the ACE inhibitor captopril (dose) or the ARB candesartan cilexetil (dose) were given for 4 weeks in drinking water. Organs examined included heart, kidney and liver and these were compared to either untreated mice or high salt-fed mice that were treated with saline.
(§2) Mice were placed on either a normal rodent diet (0.35% NaCl) which acted as control or a high salt diet (5% sodium in food chow) for 8 weeks. After 4 weeks, mice were also treated subcutaneously (via osmotic mini-pump) with either saline or an AT2R agonist (75 pmol/kg/min subcutaneously) for 4 weeks. Mice continued to be fed a high salt diet whilst receiving these treatments.
Liver sections used either picrosirius red staining or Masson's trichome staining as described above. Higher concentrations of picrosirius red were often used under polarized light microscopy. The liver was removed and sectioned with half of the liver placed in 10% formalin and the rest frozen in liquid nitrogen before being stored in ˜80° C. freezer for future use. Formalin fixed, paraffin embedded livers were sectioned at thickness of 4 μm and were stained with Masson's trichrome according to standard procedures for analysis of liver fibrosis. […] Sections were re-fixed in Bouin's solution for 1 hour at 56° C. to improve staining quality then rinsed in running tap water for 5-10 minutes to remove yellow colour. Following this, sections were stained in Weigert's iron hematoxylin working solution for 10 minutes. Rinsed in running warm tap water for 10 minutes. Washed in distilled water. Stained in Biebrich scarlet-acid fuchsin solution for 10-15 minutes.
Washed in distilled water. Differentiated in phosphomolybdic-phosphotungstic acid solution for 10-15 minutes or until collagen was no longer red. Sections were transferred directly (without rinse) to aniline blue solution and stained for 5-10 minutes. Rinsed briefly in distilled water and differentiated in 1% acetic acid solution for 2-5 minutes. Washed in distilled water. […] Mounted with DPX mounting medium. Quantification of liver fibrosis was performed using images captured with the Aperio scanner (Monash Histology Platform, Monash University), with ×5 magnification. Each liver section had 5 different fields of view photographed at this magnification. Percentage of interstitial and perivascular collagen was analysed and quantified using ImageJ 1.48 software (Java, NIH), and the percentage from 5 random fields of view were averaged for final percentage of collagen for that particular animal. All analysis of collagen expression was conducted in a blinded fashion.

Assay [4] has as its system male FVB/N mice on high salt diet, heart. Description: High salt (5%) diet intervention model, heart. Format: in vivo, mouse. The procedure, abridged: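 Male FVB/N mice fed 5% salt diet for 8 weeks (controls 0.35% NaCl); from week 4, AT2R agonist at 75 pmol/kg/min or saline given subcutaneously by osmotic minipump for 4 weeks on continued high salt. Heart collagen by picrosirius red, % interstitial staining averaged over eight fields; immunofluorescence for fibrosis/inflammation markers.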

Assay [5] deals with male FVB/N mice on high salt diet, kidney. Description: High salt (5%) diet intervention model, kidney. Format: in vivo, mouse. Particulars: 75 pmol/kg/min s.c., weeks 5-8. On the procedure: as §1, §2
To measure collagen deposition, frozen sections of heart, kidney or aorta (all 5 μm thickness) were air dried for 10 minutes and were brought through 3 times xylene (2 minutes each), and 3 times absolute alcohol washes before being rinsed in tap H2O for 30 seconds. Staining with an optimal concentration of picrosirius red (in this instance 0.05% picrosirius red diluted in saturated picric acid) was performed and left for an hour. Sections were then rinsed in water and differentiated in 0.01M HCl for 2 minutes, followed by dehydration via 3 times absolute alcohol washes. Then, slides were brought through 3 times xylene washes before being cover slipped according to standard histological techniques using DPX as the mounting medium. Images were taken under ×20 magnification, using bright field (Olympus, BX51) and circularized polarized light microscopy (DM IRB, Leica) while percentage of positive interstitial collagen staining per total field of view was quantified using ImageJ 1.46 software (Java, NIH), and averaged out from a total of eight views as the final percentage collagen content in a particular animal.
Kidney sections used either picrosirius red staining as described above or using Mason's Trichrome staining as described below.
Formalin fixed, paraffin embedded kidneys were sectioned at thickness of 4 μm and were stained with Masson's trichrome according to standard procedures for analysis of kidney fibrosis. […] Sections were re-fixed in Bouin's solution for 1 hour at 56° C. to improve staining quality then rinsed in running tap water for 5-10 minutes to remove yellow colour. Following this, sections were stained in Weigert's iron hematoxylin working solution for 10 minutes. Rinsed in running warm tap water for 10 minutes. Washed in distilled water. Stained in Biebrich scarlet-acid fuchsin solution for 10-15 minutes. Washed in distilled water. Differentiated in phosphomolybdic-phosphotungstic acid solution for 10-15 minutes or until collagen was no longer red. Sections were transferred directly (without rinse) to aniline blue solution and stained for 5-10 minutes. Rinsed briefly in distilled water and differentiated in 1% acetic acid solution for 2-5 minutes. Washed in distilled water. […] Mounted with DPX mounting medium.
Quantification of kidney fibrosis was performed using images captured with the Aperio scanner (Monash Histology Platform, Monash University), with ×5 magnification. Each kidney section had 5 different fields of view photographed at this magnification. Percentage of tubulointerstitial collagen was analysed and quantified using ImageJ 1.48 software (Java, NIH), and the percentage from 5 random fields of view were averaged for final percentage of collagen for that particular animal. All analysis of collagen expression was conducted in a blinded fashion.
This is another data set of the same source.

Assay [6] concerns human cardiac fibroblasts. Description: AT1R and AT2R mRNA expression in human cardiac fibroblasts (qPCR). Format: cell-based. Particulars: 5 ng/ml for 72 hours. The method, then:
FIG. 2: TGF-β1 differentially affects the mRNA expression of AT1R and AT2R in human cardiac fibroblasts. Quantitative qPCR data showing that both AT1R and AT2R are expressed in human cardiac fibroblasts. TGF-β1 (5 ng/ml for 72 hours) increased AT2R mRNA expression but not AT1R mRNA expression. Quantitative values were obtained from the threshold cycle (Ct) number. Target gene expression level was normalized against beta-actin mRNA expression for each sample and data was expressed relative to the control. Data expressed as mean±sem relative to untreated HCFs; *P<0.05 versus untreated control (t-test).

Assay [7] addresses T1, human Angiotensin II Receptor Type 2 (AT2R) (human, UniProt P50052 1-363).
T1 construct: whole, on cells; also endogenous on human cardiac fibroblasts (functional entries); also called AT2 receptor
T1 sequence (looked up): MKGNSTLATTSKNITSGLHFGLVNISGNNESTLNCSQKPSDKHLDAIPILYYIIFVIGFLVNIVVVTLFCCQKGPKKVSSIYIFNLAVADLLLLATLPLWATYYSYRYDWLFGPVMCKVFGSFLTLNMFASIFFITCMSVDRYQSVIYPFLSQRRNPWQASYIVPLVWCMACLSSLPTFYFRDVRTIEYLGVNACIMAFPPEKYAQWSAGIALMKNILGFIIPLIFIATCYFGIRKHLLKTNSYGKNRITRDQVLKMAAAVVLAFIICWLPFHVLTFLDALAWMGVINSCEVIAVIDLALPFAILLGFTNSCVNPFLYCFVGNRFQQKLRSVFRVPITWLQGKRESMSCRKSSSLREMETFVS
The experiment in a line: competition radioligand binding on HEK-293 cells with AT2R; competitor [125I]-Sar1Ile8Ang II.
Protocol: (§3) For each experiment, each ligand concentration was tested in duplicate or triplicate, and each experiment was repeated at least 3 separate times.

For assay [8], the target named is T1, human Angiotensin II Receptor Type 2 …. Description: AT2R over AT1R, from IC50s of competition radioligand binding; reference AT1R.
Protocol: as §3
Assay [9] addresses T2, human Angiotensin II Receptor Type 1 (AT1R) (human, UniProt P30556 1-359).
T2 construct: whole, on cells; also endogenous on human cardiac fibroblasts (functional entry); also called AT1 receptor
T2 sequence (looked up): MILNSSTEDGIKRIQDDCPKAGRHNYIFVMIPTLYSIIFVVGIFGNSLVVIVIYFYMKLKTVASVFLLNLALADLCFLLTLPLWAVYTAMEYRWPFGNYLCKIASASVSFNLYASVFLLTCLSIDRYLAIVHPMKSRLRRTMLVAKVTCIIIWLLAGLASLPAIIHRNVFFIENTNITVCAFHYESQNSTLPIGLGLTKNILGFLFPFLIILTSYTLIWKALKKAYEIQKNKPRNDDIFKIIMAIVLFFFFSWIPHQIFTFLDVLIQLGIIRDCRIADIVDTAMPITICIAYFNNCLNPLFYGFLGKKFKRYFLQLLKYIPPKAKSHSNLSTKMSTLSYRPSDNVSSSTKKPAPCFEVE
The experiment in a line: competition radioligand binding on HEK-293 cells with AT1R; competitor [125I]-Sar1Ile8Ang II.
Protocol: as §3

Take `CC[C@H](C)[C@@H](CC(=O)N[C@@H](Cc1c[nH]cn1)C(=O)N1CCC[C@H]1C(=O)N[C@@H](Cc1ccccc1)C(=O)O)NC(=O)[C@H](Cc1ccc(O)cc1)NC(=O)[C@@H](NC(=O)[C@H](CCCNC(=N)N)NC(=O)[C@@H](N)CC(=O)O)C(C)C` [βIle-Ang II, Asp-Arg-Val-Tyr-β-Ile-His-Pro-Phe]: the “systolic blood pressure (SBP)” value in [1] was “did not alter SBP”. In [2], the “macrophage infiltration in kidney (F4/80)” value was “reversed”. In assay [3], the “liver steatosis (Oil Red O)” value is “significantly reduced excess lipid accumulation”. Moreover, the figures for the “liver fibrosis (picrosirius red, polarized light)” value in [3] (listed as 8-Ile^5-Ang II) and in [3] (listed as β-Ile^5-Ang II) were “reversed collagen accumulation to levels seen in normal salt group” and “similarly inhibited the pro-fibrotic effects of high salt in the liver”, respectively. Also, in assay [4] (75 pmol/kg/min s.c., weeks 5-8), the “TGF-β1 protein in the heart (Western blot)” value is “significantly lower TGF-β1 protein”. The “myofibroblast differentiation in heart (α-SMA)” value in assay [4] (75 pmol/kg/min s.c., weeks 5-8) is on record as “reduced myofibroblast differentiation”. For the same molecule, in [4] (weeks 5-8, peptide 75 pmol/kg/min s.c., Cand 2 mg/kg/day, captopril 3 mg/kg/day), the “MMP-13 protein expression in heart (Western blot)” value is reported as “normalised MMP-13 to levels observed in the normal salt group”. Moreover, the “macrophage infiltration/expression in heart (F4/80)” value in assay [4] (weeks 5-8, peptide 75 pmol/kg/min s.c., Cand 2 mg/kg/day, captopril 3 mg/kg/day, listed as β-Ile^5-Ang II) is reported as “reversed by all agents; also recorded: reduced macrophage infiltration/expression”. In [4] (weeks 5-8, peptides 75 pmol/kg/min s.c., Cand 2 mg/kg/day, captopril 3 mg/kg/day, listed as β-Ile^5-Ang II), the “expression of P-IκBα (marker for NFκB activation) in heart” value is given as “significantly reduced expression of P-IκBα”. In assay [4] (weeks 5-8 of high salt diet, peptides 75 pmol/kg/min s.c. mini-pump, Cand 2 mg/kg/day, captopril 3 mg/kg/day in drinking water, listed as β-Ile^5-Ang II), the “cardiac fibrosis (picrosirius red)” value is recorded as “reversed high salt-induced cardiac fibrosis”. For the same molecule, in assay [5], the “kidney tubulointerstitial fibrosis (Masson's trichrome)” value is “reversed high salt-induced tubulointerstitial fibrosis”.
With “TGF-β1: pro-fibrotic agent (fibrogenic cytokine) used to stimulate human cardiac fibroblasts”, in assay [6], the “AT1R mRNA expression” value was “not” and the “AT2R mRNA expression” value is recorded as “increased”.

B1: βIle-8-Ang III (peptide)
peptide: RVYIHP[βIle]-OH
notes: synthetic peptide; also called Arg-Val-Tyr-Ile-His-Pro-β-Ile
In the case of B1, the IC50 in assay [7] stood at 9.6 nM. Further, in assay [8], the “Fold AT2R selectivity” value amounted to 1040 fold.

B2: βVal-Trp-8-Ang III (peptide)
peptide: R[βVal]YIHPW
notes: synthetic peptide; also called Arg-β-Val-Tyr-Ile-His-Pro-Trp
Turning to B2, the IC50 in assay [9] was 1210 nM.
